From patent publication US7812022B2 (GlaxoSmithKline LLC, priority 2004, dated 2010) come the findings set out here.

SMILES strings stand for the structures.

For test [1], the target named is T1, ErbB2 or EGFR.
T1 construct: enzymes purified from a baculovirus expression system; Reagent production was conducted essentially as described in Brignola, P. S., et al, (2002) J. Biol. Chem. 277(2): 1576-1585
In words: ErbB family substrate phosphorylation enzyme assay (HTRF), Method A or Method B. It counts as biochemical. Here is the method: Compounds of the present invention were tested for EGFR, ErbB-2, and ErbB-4 protein tyrosine kinase inhibitory activity in substrate phosphorylation assays using enzymes purified from a baculovirus expression system. Reagent production was conducted essentially as described in Brignola, P. S., et al, (2002) J. Biol. Chem. 277(2): 1576-1585.
The method measures the ability of the isolated enzyme to catalyse the transfer of the gamma-phosphate from ATP onto the tyrosine residue of a biotinylated synthetic peptide referenced “Peptide C” in Brignola, P. S., et al, (2002) J. Biol. Chem. 277(2):1576-1585. The extent of tyrosine phosphorylation was measured using an anti-phosphotyrosine antibody, and quantified by homogenous time-resolved fluorescence (HTRF).
Reactions were performed in black 384-well polystyrene flat-bottom plates in a final volume of 20 ul. Assays were performed by adding 10 μl of each of the following solutions, substrate Mix and enzyme mix: The Substrate mix contained 100 mM 3-[N-morpholino]propanesulfonic acid (MOPS) (pH 7.5), 2 mM MnCl2, 20 μM ATP, 0.01% Tween-20, 0.1 mg/mL (BSA), 0.8 uM peptide substrate, and 1 mM dithiothreitol. The enzyme mix contained 100 mM MOPS (pH7.5); 0.01% Tween-20; 0.1 mg/mL BSA, and either 0.8 nM EGFR, 10 nM ErbB2, or 1 nM ErbB4
During the course of these studies, two separate methods have been used to measure the potency of compounds. In Method A, the substrate mix was added to the compound plates first, then the reaction was started by adding the enzyme mix. In Method B, the enzyme mix was added to the compound plates and the plates were incubated at 20° C. for 1 hour. The reactions were then started by adding the substrate mix.
After initiating the reaction with either method describe above, the reactions were allowed to proceed for 90 minutes at 20° C. The reactions were then terminated by the addition of 20 μl 100 mM EDTA to each well. 40 μl/well of HTRF detection mix were added to the assay plates. The final concentrations of the detection reagents were: 100 mM HEPES (pH7.5), 0.1 mg/mL BSA, 15 nM streptavidin-labeled allophycocyanin (PerkinElmer), and 1 nM europium-labeled anti-phosphotyrosine antibody (PerkinElmer). Assay plates were left unsealed and were counted in a Wallac Multilabel Counter 1420 (PerkinElmer).
Compounds under analysis were dissolved in Me2SO to 1.0 mM and serially diluted 1 to 3 with Me2SO through twelve dilutions. 1 μl of each concentration was transferred to the corresponding well of an assay plate. This creates a final compound concentration range from 0.00027 to 47.6 μM.
The data for dose responses were plotted as % Inhibition calculated with the data reduction formula 100*(1−(U1−C2)/(C1−C2)) versus concentration of compound where U is the unknown value, C1 is the average control value obtained for 4.76% DMSO, and C2 is the average control value obtained for 0.035 M EDTA. Data were fitted with a curve described by: y=((Vmax*x)/(K+x))+Y^2 where Vmax is the upper asymptote, Y2 is the Y intercept, and K is the IC50. The results for each compound were recorded as pIC50s, calculated as follows: pIC50=−Log 10(K)
Background: TR-FRET usually uses a lanthanide donor and a delayed reading to cut background.

The subject of test [2] is BT474 and HN5 tumor cell lines. Nature of the test: Methylene blue growth inhibition assay (cellular Method A). In kind it is cell-based, Human. As to conditions: Homo sapiens, BT-474, 72 h, 3 days, read-out: Activity (Method): growth inhibition IC50 class. As for the experimental part: Human breast (BT474) and head and neck (HN5) were cultured in low glucose DMEM (Life Technologies 12320-032) containing 10% fetal bovine serum (FBS). Human colon tumor cells (Colo205) were cultured in DMEM (Invitrogen, 10564) containing 10% FBS. The SV40 transformed human mammary epithelial cell line HB4a was transfected with either human H-ras cDNA (HB4a r4.2) or the human c-ErbB2 cDNA (HB4a c5.2). The HB4a clones were cultured in RPMI containing 10% FBS, insulin (5 g/mL), hydrocortisone (5 g/mL), supplemented with the selection agent hygromycin B (50 g/mL). All lines were grown in a humidified incubator at 37° C. in 95% air, 5% CO2. Cells were harvested using trypsin/EDTA, counted using a haemocytometer, and plated in 100 microliters of the appropriate media, at the following densities, in a 96-well tissue culture plate (Falcon 3075): BT474 10,000 cells/well, HN5 3,000 cells/well. The next day, compounds were diluted in DMEM containing […] gentamicin, at twice the final required concentration, from 10 mM stock solutions in DMSO. 100 microliters/well of these dilutions were added to the 100 microliters of media currently on the cell plates. Medium containing 0.6% DMSO was added to control wells. Compounds diluted in DMEM were added to all cell lines. The final concentration of DMSO in all wells was 0.3%. Cells were returned to the incubator (37° C., 10% CO2) for 3 days. Medium was then removed by aspiration. Cell biomass was estimated by staining cells with 90 microliters per well methylene blue (Sigma M9140, 0.5% in 1:1 ethanol:water), and incubation at rt for at least 30 minutes. Stain was removed, and the plates rinsed by immersion in deionized water and air-dried. To release stain from the cells 100 microliters of solubilization solution was added (1% N-lauroyl sarcosine, Sodium salt, Sigma L5125, in PBS), and plates were shaken gently for about 30 minutes. Optical density at 620 nm was measured on a microplate reader. Percent inhibition of cell growth was calculated relative to vehicle treated control wells. Concentration of compound that inhibits 50% of control cell growth (IC50) was interpolated using nonlinear regression (Levenberg-Marquardt) and the equation, y=Vmax*(1−(x/(K+x)))+Y2, where “K” was equal to the IC50. Method B: Celltiter Glo® Growth Inhibition Assays

Where [3] appears, read: Method B: enzyme mix pre-incubated with compound 1 hour at 20° C., started with substrate mix.
Where [4] appears, read: Method A: substrate mix added first, reaction started with enzyme mix.

On to `CN1CCc2ccc(Nc3nccc(-c4c(-c5cccc(NC(=O)c6ccccc6)c5)nn5ccccc45)n3)cc2C1` [Example 63, N-[3-(3-{2-[(2-methyl-1,2,3,4-tetrahydro-7-isoquinolinyl)amino]-4-pyrimidinyl}pyrazolo[1,5-a]pyridin-2-yl)phenyl]benzamide], for which, in test [1] (setting [3]), the “Activity (Method): pIC50 class against ErbB2 or EGFR” value (“Activity (Method): pIC50 class” below) is listed as “+++ (B) (at least one pIC50 measurement of greater than 7 against either ErbB2 or EGFR)”. Moreover, in test [2], the IC50 (in general, the concentration that gives 50% inhibition) is less than 100 nM.

Regarding `O=C(Nc1cccc(-c2nn3ccccc3c2-c2ccnc(Nc3ccc4c(c3)CNCC4)n2)c1)c1c(F)cccc1F` [Example 64, 2,6-Difluoro-N-(3-{3-[2-(1,2,3,4-tetrahydro-7-isoquinolinylamino)-4-pyrimidinyl]pyrazolo[1,5-a]pyridin-2-yl}phenyl)benzamide], in test [1] (setting [3]), the “Activity (Method): pIC50 class” value is recorded as “+++ (B) (at least one pIC50 measurement of greater than 7 against either ErbB2 or EGFR)”. In addition, in test [2], the IC50 was less than 100 nM.

Turning to `Cc1ccc(F)c(C(=O)Nc2cccc(-c3nn4ccccc4c3-c3ccnc(Nc4cccc(F)c4)n3)c2)c1F` [Example 72, 2,6-Difluoro-N-[3-(3-{2-[(3-fluorophenyl)amino]-4-pyrimidinyl}pyrazolo[1,5-a]pyridin-2-yl)phenyl]-3-methylbenzamide], in test [1] (setting [3]), the “Activity (Method): pIC50 class” value was “++ (B) (at least one pIC50 measurement greater than 6 against either ErbB2 or EGFR but no measurement greater than pIC50 of 7)”. In addition, the IC50 in test [2] was 100 to 1000 nM.

As for `O=C(Nc1cccc(-c2nn3ccccc3c2-c2ccnc(Nc3ccc(N4CCOCC4)c(F)c3)n2)c1)c1c(F)cccc1F` [Example 99, 2,6-Difluoro-N-{3-[3-(2-{[3-fluoro-4-(4-morpholinyl)-phenyl]amino}-4-pyrimidinyl)pyrazolo[1,5-a]pyridin-2-yl]phenyl}benzamide], the “Activity (Method): pIC50 class” value in test [1] (setting [4]) is given as “+++ (A) (at least one pIC50 measurement of greater than 7 against either ErbB2 or EGFR)”. Further, the half-inhibitory concentration (IC50) in test [2] is less than 100 nM.

Turning to `O=C(c1ccccc1)c1ccc(Nc2nccc(-c3c(-c4cccc(NC(=O)c5c(F)cccc5F)c4)nn4ccccc34)n2)cc1` [Example 98, 2,6-Difluoro-N-{3-[3-(2-{[4-(phenylcarbonyl)phenyl]-amino}-4-pyrimidinyl)pyrazolo[1,5-a]pyridin-2-yl]phenyl}benzamide], in test [1] (setting [4]), the “Activity (Method): pIC50 class” value is reported as “++ (A) (at least one pIC50 measurement greater than 6 against either ErbB2 or EGFR but no measurement greater than pIC50 of 7)”. Besides, the IC50 in test [2] lay within 100 to 1000 nM.

Consider `Cn1cccc1C(=O)Nc1cccc(-c2nn3ccccc3c2-c2ccnc(Nc3ccc4c(c3)OCCO4)n2)c1` [Example 3, 1-Methyl-1H-pyrrole-2-carboxylic acid (3-{3-[2-(2,3-dihydro-benzo[1,4]dioxin-6-ylamino)-pyrimidin-4-yl]-pyrazolo[1,5-a]pyridin-2-yl}-phenyl)-amide], for which the “Activity (Method): pIC50 class” value in test [1] (setting [4]) was “+++ (A) (at least one pIC50 measurement of greater than 7 against either ErbB2 or EGFR)”. Besides, the IC50 in test [2] was 100 to 1000 nM.

Take `COc1ccc(Nc2nccc(-c3c(-c4cccc(NC(=O)c5c(F)cccc5F)c4)nn4c(C(F)(F)F)cccc34)n2)cc1F` [Example 154, N-[3-(3-[2-{3-fluoro4-methoxyphenylamino]-4-pyrimidinyl}-7-trifluoropyrazolo[1,5-b]pyridin-2-yl)phenyl]-2,6-difluorobenzamide]: the “Activity (Method): pIC50 class” value in test [1] (setting [4]) was “++ (A) (at least one pIC50 measurement greater than 6 against either ErbB2 or EGFR but no measurement greater than pIC50 of 7)”. In test [2], the IC50 lay in the range of 100 to 1000 nM.

For `O=C(Nc1cccc(-c2nn3ccccc3c2-c2ccnc(Nc3cccc(F)c3)n2)c1)c1sccc1Cl` [Example 79, 3-Chloro-N-[3-(3-{2-[(3-fluorophenyl)amino]-4-pyrimidinyl}pyrazolo[1,5-a]pyridin-2-yl)phenyl]-2-thiophenecarboxamide], the “Activity (Method): pIC50 class” value in test [1] (setting [3]) is “++ (B) (at least one pIC50 measurement greater than 6 against either ErbB2 or EGFR but no measurement greater than pIC50 of 7)”. In addition, in test [2], the half-maximal inhibitory concentration (IC50) lay within 100 to 1000 nM.

In the case of `O=C(Nc1cccc(-c2nn3ccccc3c2-c2ccnc(Nc3ccc(N4CCOCC4)cc3)n2)c1)c1c(F)cccc1F` [Example 27, 2,6-Difluoro-N-{3-[3-(2-{[4-(4-morpholinyl)phenyl]amino}-4-pyrimidinyl)pyrazolo[1,5-a]pyridin-2-yl]phenyl}benzamide], in test [1] (setting [3]), the “Activity (Method): pIC50 class” value is listed as “++ (B) (at least one pIC50 measurement greater than 6 against either ErbB2 or EGFR but no measurement greater than pIC50 of 7)”. For the same compound, the 50% inhibitory concentration (IC50) in test [2] was less than 100 nM.

On to `Cc1c(F)cccc1C(=O)Nc1cccc(-c2nn3ccccc3c2-c2ccnc(Nc3cccc(F)c3)n2)c1` [Example 71, 3-Fluoro-N-[3-(3-{2-[(3-fluorophenyl)amino]-4-pyrimidinyl}pyrazolo[1,5-a]pyridin-2-yl)phenyl]-2-methylbenzamide], for which the “Activity (Method): pIC50 class” value in test [1] (setting [3]) was “++ (B) (at least one pIC50 measurement greater than 6 against either ErbB2 or EGFR but no measurement greater than pIC50 of 7)”. Also, the IC50 in test [2] was in the range of 100 to 1000 nM.

On to `CN(C)CCCc1ccc(Nc2nccc(-c3c(-c4cccc(NC(=O)c5c(F)cccc5F)c4)nn4ccccc34)n2)cc1` [Example 112, N-(3-{3-[2-({4-[3-(dimethylamino)propyl]phenyl}-amino)-4-pyrimidinyl]pyrazolo[1,5-a]pyridin-2-yl}phenyl)-2,6-difluorobenzamide], for which the “Activity (Method): pIC50 class” value in test [1] (setting [3]) is on record as “+++ (B) (at least one pIC50 measurement of greater than 7 against either ErbB2 or EGFR)”. Further, in test [2], the IC50 is less than 100 nM.

With `O=C(Nc1cccc(-c2nn3ccccc3c2-c2ccnc(Nc3ccc4c(c3)OCCO4)n2)c1)c1ccccc1Cl` [Example 6, 2-Chloro-N-(3-{3-[2-(2,3-dihydro-benzo[1,4]dioxin-6-ylamino)-pyrimidin-4-yl]-pyrazolo[1,5-a]pyridin-2-yl}-phenyl)-benzamide], in test [1] (setting [4]), the “Activity (Method): pIC50 class” value is “+++ (A) (at least one pIC50 measurement of greater than 7 against either ErbB2 or EGFR)”. Also, the IC50 in test [2] is less than 100 nM.
